Source: PMC12313074, “Targeting translation initiation yields fast-killing therapeutics against the zoonotic parasite Cryptosporidium parvum” (PLOS Pathogens, 2025)

B1: 5'-overhanging duplex RNA (42/24 nt) (dsRNA)
RNA 1: CAUUAUCGGAUAGUGGAACCUAGCUUCGACUAUCGGAUAAUC
RNA 2: GAUUAUCCGAUAGUCGAAGCUAGG

Legend:
[1] = biological target: T1, MDR1 (multi-drug resistance-1) (Homo sapiens, UniProt P08183); assay: cell tolerance (viability) assay, MDR1-overexpressing vs vector HCT-8 cells, reversed by elacridar; assay type: cell-based
T1 construct: gene ABCB1; transient over-expression from pCMV3-MDR1 in HCT-8 cells

MBP-CpeIF4A = MBP-CpeIF4A (Cryptosporidium parvum, UniProt F0X401 1-405); assay: RNA alone, no ATP, no Roc-A; TSA: 90 mM Na2HPO4, 10 mM NaH2PO4, 2 mM DTT, pH 7.8, 5 uM MBP-CpeIF4A, 20 uM SYPRO Orange; melt 40-70 C at 1 C/min; details: protein: recombinant; tags: N-terminal MBP (pMAL-c5X); label: 6-FAM on 42-nt strand (text says 5' end, printed at 3'); BHQ-1 on 24-nt strand (text says 3', printed at 5'); 5' overhang 18 nt on strand 1, 24 bp duplex

Molecule	cell tolerance (viability) assay, MDR1-overexpressing vs vector HCT-8 cells, rev [1]	Kd (MBP-CpeIF4A) [nM]
COc1ccc([C@@]23Oc4cc(OC)cc(OC)c4[C@]2(O)[C@H](O)[C@H](C(=O)N(C)C)[C@H]3c2ccccc2)cc1 [Roc-A, Rocaglamide A]	reversed this tolerance in a dose-dependent manner (Fig 1D, bars from 3a to 6b), verifying that Roc-A is an MDR1 substrate	–
B1	–	1130
